Consider 2 molecules from patent publication US20170307631A1, “METHODS, SYSTEMS AND PRODUCTS FOR PREDICTING RESPONSE OF TUMOR CELLS TO A THERAPEUTIC AGENT AND TREATING A PATIENT ACCORDING TO THE PREDICTED RESPONSE” (Merrimack Pharmaceuticals, Inc., priority 2008, published 2017).

Test [1] concerns BT474-M3 xenograft. In words: Xenograft tumor model treated with H3×B1D2, BT474-M3. It is filed as in vivo, mouse. The settings on record: 600 μg/injection every 3 days, negative RGR = tumor regression. As for the experimental part: (§1) To characterize the in vivo response of tumors to H3×B1D2 treatment, a panel of tumor cell lines was tested in a xenograft tumor model such as described in Example 1. In the xenograft tumor models, mice (nu/nu mice: 4-5 week old female mice, athymic, nude, outbred background; Albino; purchased from Charles River Labs, Wilmington, Mass.) are implanted in the flank with 5×10^6-2×10^7 cells/mouse (depending on cell line) in […] subcutaneous injection. Mice are monitored for initial tumor growth. Tumors are allowed to grow for several days until the mean tumor volume is approximately 150-200 mm^3. The tumor volume is calculated as V=(π/6 (L×W^2). The mice are treated with the H3×B1D2 antibody at a dosage of 600 μg/injection every 3 days (q3d). Control mice are treated with phosphate buffered saline (PBS) or with wild-type HSA (human serum albumin). Tumor volume is measured for 40-80 days.
(§2) The control and treatment data from the in vivo xenograft experiments was fitted to exponential growth curves, using the following formula: […]
(§3) wherein V is the tumor volume, Vo is the tumor volume at time zero, k is the exponential growth rate and t is the time. The potency of H3×B1D2 in inhibiting tumor growth was represented as the ratio of treatment and control exponential growth rates for each cell line tested. This ratio was denoted “relative growth rate” (RGR) and is represented as: […]

In test [2] the test system is IGROV1 xenograft. In words: Xenograft tumor model treated with H3×B1D2, IGROV1. It is filed as in vivo, mouse. The settings on record: 600 μg/injection every 3 days, RGR of 1 = no effect. As for the experimental part:
as §1, §2, §3

Test [3] relates to LS180 xenograft. In words: Xenograft tumor model treated with H3×B1D2, LS180. The settings on record: 600 μg/injection every 3 days, RGR of 1 = no effect. Format: in vivo, mouse. As for the experimental part:
as §1, §2, §3

In test [4] the test system is pErbB3 and pAKT signaling in different cell lines. In words: Inhibition of HRG-induced pErbB3 and pAKT signaling by H3×B1D2, different cell lines. It is filed as cell-based. The settings on record: across different cell lines; 5 nM HRG stimulation, ten-minute lysis. As for the experimental part:
(§4) For stimulation of the cells, the cells are seeded in duplicate wells with 1000 μl complete media at 150,000 cells per well in 12 well tissue culture plates (for 96 half well ELISA) or in duplicate plate of 100 μl complete media at 20,000 cells per well in 96 well tissue culture plates (for 384 well ELISA). These cells are incubated overnight in a humidified atmosphere of 5% CO2, 95% air and 37 degrees Celsius. Cells are then switched to serum free media: RPMI-1640 media (Gibco) supplemented with, 2 mM L-glutamine (Gibco) and units/mL Pen-Strep (Gibco). Starved cells are incubated in a humidified atmosphere of 5% CO2, 95% air and 37 degrees Celsius for 20-24 hours prior to stimulation. For dose-time matrix studies, cells are stimulated with ligand (HRG) at 0, 1, 2, 3, 4, 5, 7, 10, 20, 30, 60 and 120 minutes. […]
(§5) Levels of protein phosphorylation in the stimulated cells are measured by ELISA. ErbB1, ErbB2, and ErbB3 are measured using R&D Systems Duoset IC kits (ErbB1 DYC1095-E, ErbB2 DYC1768-E, ErbB3 DYC1769-E). […] All ELISAs are visualized with SuperSignal ELISA Pico Chemiluminescent Substrate (Pierce, Catalog #37069) and luminescent signal is measured using a luminometer. […]

Test [5] concerns pErbB3 and pAKT in OVCAR8-HER2 cells. In words: Inhibition of pErbB3 and pAKT by H3×B1D2 in OVCAR8-HER2 cells. The settings on record: OVCAR8-HER2 (higher ErbB2 expression) compared to OVCAR8. It is filed as cell-based. As for the experimental part:
as §4, §5

Test [6] concerns pErbB3 and pAKT in ADRr cells. The test can be described thus: Inhibition of pErbB3 and pAKT by H3×B1D2 in ADRr cells. Format: cell-based. The settings on record: ADRr cells (low ErbB2), computational model and experimental data. As for the experimental part:
as §4, §5

Test [7] concerns the target ErbB2 (Homo sapiens, UniProt P04626). The settings on record: cited from earlier work.

As for “H3×B1D2: bispecific antibody, anti-ErbB3 single chain antibody H3 linked to anti-ErbB2 single chain antibody B1D2, SEQ ID NO: 41”, the “relative growth rate (RGR = kH3×B1D2/kcontrol)” value in test [1] was “negative”; in test [2], “greater than 1”; in test [3], “greater than 1”. Besides, the “IC50 of inhibition of pErbB3 and pAKT signaling” value in test [4] is reported as “did not greatly change”. Also, the “inhibition percentage of pErbB3 and pAKT” value in test [5] was “greater inhibition percentage”. The “percentage of inhibition of pErbB3 and pAKT” value in test [6] is “poor percentage of inhibition”.
On to `CS(=O)(=O)CCNCc1ccc(-c2ccc3ncnc(Nc4ccc(OCc5cccc(F)c5)c(Cl)c4)c3c2)o1` [lapatinib], for which, in test [7], the “Lapatinib on-rate for binding to ErbB2 or 2-3 dimers before unit conversion” value is on record as “Unit conversion calculated as 2.95e3 M^−1s^−1/”.
